# Results as given in PMC3234531 (2011).
# What was measured:
# [1] = biological target: cystathionine γ-lyase (CSE); assay: CSE activity assay after pre-incubation with the NO donor S-nitroso-glutathione; type: biochemical
# [2] = biological target: IKca channel (intermediate conductance potassium channel) (Homo sapiens, UniProt O15554); assay: modified biotin switch; type: cell-based
# Sequence of IKca channel (intermediate conductance potassium channel) (O15554 whole entry): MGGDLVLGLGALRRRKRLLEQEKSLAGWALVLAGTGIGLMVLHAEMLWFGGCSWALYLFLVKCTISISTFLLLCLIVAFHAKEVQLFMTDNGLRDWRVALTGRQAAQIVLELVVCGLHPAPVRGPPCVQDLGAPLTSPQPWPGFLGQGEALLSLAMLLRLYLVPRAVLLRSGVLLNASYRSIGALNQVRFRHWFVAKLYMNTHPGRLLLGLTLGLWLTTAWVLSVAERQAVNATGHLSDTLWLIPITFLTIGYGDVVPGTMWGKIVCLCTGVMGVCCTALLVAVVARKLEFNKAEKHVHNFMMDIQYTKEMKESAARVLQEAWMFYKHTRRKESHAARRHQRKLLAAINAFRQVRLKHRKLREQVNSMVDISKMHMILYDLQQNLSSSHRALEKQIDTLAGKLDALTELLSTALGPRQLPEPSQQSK
Structure (SMILES),IC50 [1],"modified biotin switch (S-sulfhydration) assay, DTT-sensitive [2]"
[N]=O [NO],~100 nM,
S [H2S],,IKca channels from human aortic endothelial cells are sulfhydrated by NaHS in a DTT-sensitive fashion
